In paper PMC7395068, “The evolution of strategies to minimise the risk of human drug-induced liver injury (DILI) in drug discovery and development” (Archives of Toxicology, 2020):
Like-named read-outs stand apart in the source and are kept apart here.

Key:
[1] = system: THLE or HepG2 cells, isolated mitochondria, BSEP; settings: cited from earlier work
[2] = system: HepaRG spheroids; assay: Combined HCI (HCS) and cellular ATP 3D assay in HepaRG spheroids; settings: for AC50 / minimal effective concentration: Homo sapiens
[3] = plasma free fraction; cited from earlier work
[4] = Plasma free fraction (fu) and unbound Cmax (Cmax,u); assay type: in vitro ADME, human; settings: unbound plasma Cmax
[5] = system: THLE-Null and THLE-3A4 cells; settings: In vitro Assay; ref Gustafsson 2014; cited from earlier work
[6] = system: PHH spheroids; settings: In vitro Assay; ref Vorrink 2018; cited from earlier work
[7] = system: hLiMTs; assay: Combined HCI (HCS) and cellular ATP 3D assay in hLiMTs; settings: for AC50 / minimal effective concentration: Homo sapiens
[8] = system: rBsep; settings: In vitro Assay; ref Dawson 2012; cited from earlier work
[9] = system: HepG2 C3A spheroid, BSEP, Glu/Gal in HepG2 cells, bioactivation; settings: cited from earlier work
[10] = read-out: Human plasma Cmax; total plasma Cmax.tot, median of 9 literature references; cited from earlier work
[11] = Modeled in vitro assays (cytotoxicity, mitochondrial dysfunction, BSEP), ref Aleo et al. 2019
[12] = Microtissue model structural based (HCI), combined HCS and ATP, MEC < 25 × Cmax.tot cut-off

CN1CCN(C2=Nc3cc(Cl)ccc3Nc3ccccc32)CC1 [clozapine]
Partition Hybrid HRM Score ([1]; In vitro Assay, ref Aleo 2019): +VE
Ro2 Hybrid HRM Score ([1]; In vitro Assay, ref Aleo 2019): +VE
Partition Hybrid HRM Score ≥4, Aleo (2019) [1, 11]: +VE (Partition Hybrid HRM Score ≥4)
Partition Hybrid HRM Score ≥8, Aleo (2019) [1, 11]: -VE
Rule of Two hybrid HRM Score ≥3, Aleo (2019) [1, 11]: +VE (Rule of Two hybrid HRM Score ≥3)
Rule of Two hybrid HRM Score ≥8, Aleo (2019) [1, 11]: -VE
HepaRG <25x Avg Cmax ATP ([2]; HepaRG, ATP endpoint, cut-off <25x Avg Cmax): +ve
HepaRG <100x Avg Cmaxu ATP ([2]; HepaRG, ATP endpoint, cut-off <100x Avg Cmaxu): -ve
HepaRG <25x Avg Cmax HCS ([2]; HepaRG, HCS endpoints, cut-off <25x Avg Cmax): +ve
HepaRG <100x Avg Cmaxu HCS ([2]; HepaRG, HCS endpoints, cut-off <100x Avg Cmaxu): +ve (<100x Avg Cmaxu)
HepaRG <25x Avg Cmax All ([2]; HepaRG, all endpoints (ATP and HCS), cut-off <25x Avg Cmax): +ve
HepaRG Cmax max All ([2]; HepaRG, all endpoints, Cmax max used): +ve
HepaRG Cmax min All ([2]; HepaRG, all endpoints, Cmax min used): +ve
HepaRG <10 uM All ([2]; HepaRG, all endpoints, cut-off <10 uM): +ve (<10 uM)
HepaRG <100x Avg Cmaxu All ([2]; HepaRG, all endpoints, cut-off <100x Avg Cmaxu): +ve (<100x Avg Cmaxu)
AC50 ([2]; HepaRG, read-out: ATP endpoint AC50): 16.6 µM
minimal effective concentration ([2]; HepaRG, read-out: ATP endpoint MEC): 13.1 µM
AC50 ([2]; HepaRG, read-out: HCS endpoint AC50): 13.2 µM
minimal effective concentration ([2]; HepaRG, read-out: HCS endpoint MEC): 4.66 µM
DILI prediction HepaRG spheroids (HCS-MEC) [2, 12]: +VE (MEC < 25 × Cmax.tot cut-off)
fu [3]: 0.030
Human plasma Cmax,u [4]: 73 nM
THLE-Null [5]: -VE
hLiMTs ATP <20 x Cmax [6]: +VE (IC20 < 20 × Cmax.tot cut-off)
AC50 ([7]; read-out: ATP endpoint AC50): 14 µM
minimal effective concentration ([7]; read-out: ATP endpoint MEC): 10.5 µM
AC50 ([7]; read-out: HCS endpoint AC50): 15.2 µM
minimal effective concentration ([7]; read-out: HCS endpoint MEC): 5.61 µM
DILI prediction hLiMTs (HCS-MEC) [7, 12]: +VE (MEC < 25 × Cmax.tot cut-off)
hLiMTs <25x Avg Cmax ATP ([7]; hLiMTs, ATP endpoint, cut-off <25x Avg Cmax): +ve
hLiMTs <100x Avg Cmaxu ATP ([7]; hLiMTs, ATP endpoint, cut-off <100x Avg Cmaxu): -ve
hLiMTs <25x Avg Cmax HCS ([7]; hLiMTs, HCS endpoints, cut-off <25x Avg Cmax): +ve
hLiMTs <100x Avg Cmaxu HCS ([7]; hLiMTs, HCS endpoints, cut-off <100x Avg Cmaxu): +ve (<100x Avg Cmaxu)
hLiMTs <25x Avg Cmax All ([7]; hLiMTs, all endpoints (ATP and HCS), cut-off <25x Avg Cmax): +ve
hLiMTs Cmax max All ([7]; hLiMTs, all endpoints, Cmax max used): +ve
hLiMTs Cmax min All ([7]; hLiMTs, all endpoints, Cmax min used): +ve
hLiMTs <10 uM All ([7]; hLiMTs, all endpoints, cut-off <10 uM): +ve (<10 uM)
hLiMTs <100x Avg Cmaxu All ([7]; hLiMTs, all endpoints, cut-off <100x Avg Cmaxu): +ve (<100x Avg Cmaxu)
Inhibition of rBsep cutoff<1& cmax u>.2 [8]: -VE
Inhibition of rBsep cutoff<3 [8]: +VE
Bayesian Machine Learning DILI prediction, Williams (2019) ([9]; Bayesian modeling, ref Williams et al. 2019): +VE
Bayesian Machine Learning ([9]; In vitro Assay, ref Williams 2019): +VE
Cmax [10]: 2450 nM
